Test results reported in US9635857B2, “Tetrazolinone compound and use thereof” (SUMITOMO CHEMICAL COMPANY, LIMITED, priority 2013, dated 2017).

Test system: soybean rust fungus (Phakopsora pachyrhizi)
Assay: Test Example 7: soybean rust control, foliar spray on soybean
Assay type: in vivo
Details: 200 ppm sprayed on soybean (KUROSENGOKU); inoculated after 2 days; assessed after 3 + 14 days

CON=C(C)c1cccc(OCc2c(C)cccc2-n2nnn(C)c2=O)n1 [compound 44]
area of lesion on the treated plant relative to that on an untreated plant: ≤ 30%
